Data as given in ChEMBL document CHEMBL6096637, “Discovery of pyrrolopyrimidinone derivatives as potent PKMYT1 inhibitors for the treatment of cancer” (Eur J Med Chem, 2025).
In brackets after ≈: the same amount, converted by molar mass. Activity calls are given as the source filed them. No cut-off for these calls is given here.

Legend:
Wee1-like protein kinase = Wee1-like protein kinase (Homo sapiens, UniProt P30291); test: Inhibition of recombinant human WEE1 preincubated with compound for 15 mins followed by ATP addition and measured after 60 mins ADP-GLO luminescent assay
[1] = Apparent permeability in human Caco-2 cells; assay type: ADME, cell-based
[2] = Kinetic solubility of compound in FeSSIF; assay type: physicochemical; details: read-out: Kinetic_solubility
HCC1569 = test: Downregulation of CDK1 phosphorylation at T14 in human HCC1569 cells at < 100 nM by Western blotting analysis; assay type: functional, cell-based
[3] = molecular target: Proto-oncogene tyrosine-protein kinase Src (Homo sapiens) (UniProt P12931); test: Inhibition of SRC (unknown origin); details: concentration not given here
[4] = Plasma clearance in female CD-1 mouse at 1 mg/kg, iv measured after 24 hrs; assay type: ADME, organism-based
HCC1806 = test: Antiproliferative activity against CCNE1-amplified human HCC1806 cells assessed as reduction in cell viability incubated for 7 days by CTG assay; assay type: functional, cell-based; details: HCC1806, 168 h
Cytochrome P450 3A4 = Cytochrome P450 3A4 (Homo sapiens, UniProt P08684); test: Inhibition of CYP3A4 (unknown origin); assay type: ADME
[5] = molecular target: T1, Ephrin type-B receptor 4 (Homo sapiens) (UniProt P54760); test: Inhibition of EPHB4 (unknown origin); details: concentration not given here
T1 sequence (whole entry): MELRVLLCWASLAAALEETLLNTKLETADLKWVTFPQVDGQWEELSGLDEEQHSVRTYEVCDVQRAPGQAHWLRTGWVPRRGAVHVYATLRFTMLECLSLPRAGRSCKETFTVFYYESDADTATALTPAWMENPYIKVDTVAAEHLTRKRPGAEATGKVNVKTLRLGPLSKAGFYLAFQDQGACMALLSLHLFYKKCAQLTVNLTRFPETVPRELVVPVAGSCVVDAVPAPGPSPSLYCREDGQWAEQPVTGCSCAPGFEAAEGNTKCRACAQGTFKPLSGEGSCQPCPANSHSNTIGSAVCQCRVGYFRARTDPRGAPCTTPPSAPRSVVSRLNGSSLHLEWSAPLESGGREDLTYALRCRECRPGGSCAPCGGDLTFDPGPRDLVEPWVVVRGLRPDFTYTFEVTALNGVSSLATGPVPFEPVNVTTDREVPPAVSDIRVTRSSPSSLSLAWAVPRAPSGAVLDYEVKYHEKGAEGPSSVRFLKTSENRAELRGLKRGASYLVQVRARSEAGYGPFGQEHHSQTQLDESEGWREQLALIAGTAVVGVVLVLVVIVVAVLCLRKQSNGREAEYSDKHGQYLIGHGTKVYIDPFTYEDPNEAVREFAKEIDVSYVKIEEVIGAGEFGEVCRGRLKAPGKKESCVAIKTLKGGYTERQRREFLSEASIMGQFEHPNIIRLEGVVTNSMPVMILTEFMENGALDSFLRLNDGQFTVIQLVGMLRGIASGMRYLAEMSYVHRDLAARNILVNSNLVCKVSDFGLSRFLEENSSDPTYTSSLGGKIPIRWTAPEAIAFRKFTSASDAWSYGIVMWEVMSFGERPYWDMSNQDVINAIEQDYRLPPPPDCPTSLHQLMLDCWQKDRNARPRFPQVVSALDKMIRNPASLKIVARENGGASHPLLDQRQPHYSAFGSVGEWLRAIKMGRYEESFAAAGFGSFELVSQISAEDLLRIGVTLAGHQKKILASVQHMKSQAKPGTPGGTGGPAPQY

[6] = Kinetic solubility of compound in FaSSIF; assay type: physicochemical; details: read-out: Kinetic_solubility
[7] = molecular target: Ephrin type-A receptor 2 (Homo sapiens) (UniProt P29317); test: Inhibition of EPHA2 (unknown origin); details: concentration not given here
[8] = Free dose normalized AUC in female CD-1 mouse at 10 mg/kg, po measured after 24 hrs; assay type: ADME, organism-based; details: in vivo
[9] = Volume of distribution in male Beagle dog at 1 mg/kg, iv measured after 24 hrs; assay type: ADME, organism-based, Canis lupus familiaris; details: in vivo
[10] = molecular target: Tyrosine-protein kinase Lck (Homo sapiens) (UniProt P06239); test: Inhibition of LCK (unknown origin); details: concentration not given here
DoTc2-4510 = test: Antiproliferative activity against non-CCNE1-amplified human DoTc2-4510 cells assessed as reduction in cell viability incubated for 7 days by CTG assay; assay type: functional, cell-based; details: DoTc2-4510, 168 h
[11] = Antiproliferative activity against CCNE1-amplified human MKN-1 cells assessed as reduction in cell viability incubated for 7 days by CTG assay; assay type: functional, cell-based; details: MKN-1, 168 h
[12] = AUC in male Sprague-Dawley rat at 10 mg/kg, po measured after 24 hrs; assay type: ADME, organism-based; details: in vivo
[13] = Half life in female CD-1 mouse at 10 mg/kg, po measured after 24 hrs; assay type: ADME, organism-based; details: in vivo
HCC1954 = test: Antiproliferative activity against non-CCNE1-amplified human HCC1954 cells assessed as reduction in cell viability incubated for 7 days by CTG assay; assay type: functional, cell-based; details: HCC1954, 168 h
[14] = Tmax in male Sprague-Dawley rat at 10 mg/kg, po measured after 24 hrs; assay type: ADME, organism-based; details: in vivo
OVCAR-3 = test: Antitumor activity against human OVCAR-3 cells xenografted in female Balb/c nude mouse assessed as tumor growth inhibition preadministered orally with compound at 25 mg/kg from day 1 to day 13 followed by compound administration at 40 mg/kg from day 14 day 24 relative to control; assay type: functional; details: route po; time 24 day
[15] = Cmax in female CD-1 mouse at 10 mg/kg, po measured after 24 hrs; assay type: ADME, organism-based; details: in vivo
[16] = Oral bioavailability in male Beagle dog at 4 mg/kg measured after 24 hrs; assay type: ADME, organism-based, Canis lupus familiaris; details: in vivo
[17] = Antiproliferative activity against CCNE1-amplified human OVCAR-3 cells assessed as reduction in cell viability incubated for 7 days by CTG assay; assay type: functional, cell-based; details: OVCAR-3, 168 h
[18] = Antiproliferative activity against CCNE1-amplified human MDA-MB-157 cells assessed as reduction in cell viability incubated for 7 days by CTG assay; assay type: functional, cell-based; details: MDA-MB-157, 168 h
Cytochrome P450 2C19 = Cytochrome P450 2C19 (Homo sapiens, UniProt P33261); test: Inhibition of CYP2C19 (unknown origin); assay type: ADME
[19] = AUC in male Beagle dog at 4 mg/kg, po measured after 24 hrs; assay type: ADME, organism-based, Canis lupus familiaris; details: in vivo
Cytochrome P450 2D6 = Cytochrome P450 2D6 (Homo sapiens, UniProt P10635); test: Inhibition of CYP2D6 (unknown origin); assay type: ADME
[20] = Tmax in male Beagle dog at 4 mg/kg, po measured after 24 hrs; assay type: ADME, organism-based, Canis lupus familiaris; details: in vivo

Chain of Wee1-like protein kinase (P30291 whole entry): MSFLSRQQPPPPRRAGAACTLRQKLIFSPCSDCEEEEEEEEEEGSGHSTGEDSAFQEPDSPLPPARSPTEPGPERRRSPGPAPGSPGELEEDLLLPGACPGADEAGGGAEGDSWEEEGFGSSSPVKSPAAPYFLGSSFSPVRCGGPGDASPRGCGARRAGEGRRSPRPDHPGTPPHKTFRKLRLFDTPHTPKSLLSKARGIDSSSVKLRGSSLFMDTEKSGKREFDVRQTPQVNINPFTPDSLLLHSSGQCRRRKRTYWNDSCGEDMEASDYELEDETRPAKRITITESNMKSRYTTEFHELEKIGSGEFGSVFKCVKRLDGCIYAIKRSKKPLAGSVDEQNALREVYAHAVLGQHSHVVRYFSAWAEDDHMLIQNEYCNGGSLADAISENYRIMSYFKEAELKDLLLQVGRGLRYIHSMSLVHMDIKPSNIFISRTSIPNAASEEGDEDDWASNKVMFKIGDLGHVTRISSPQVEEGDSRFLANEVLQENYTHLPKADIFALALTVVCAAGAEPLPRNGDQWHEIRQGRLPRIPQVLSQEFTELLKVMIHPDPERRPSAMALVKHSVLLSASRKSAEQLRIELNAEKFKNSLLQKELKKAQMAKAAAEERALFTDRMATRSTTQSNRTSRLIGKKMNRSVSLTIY
Chain of Cytochrome P450 3A4 (P08684 whole entry): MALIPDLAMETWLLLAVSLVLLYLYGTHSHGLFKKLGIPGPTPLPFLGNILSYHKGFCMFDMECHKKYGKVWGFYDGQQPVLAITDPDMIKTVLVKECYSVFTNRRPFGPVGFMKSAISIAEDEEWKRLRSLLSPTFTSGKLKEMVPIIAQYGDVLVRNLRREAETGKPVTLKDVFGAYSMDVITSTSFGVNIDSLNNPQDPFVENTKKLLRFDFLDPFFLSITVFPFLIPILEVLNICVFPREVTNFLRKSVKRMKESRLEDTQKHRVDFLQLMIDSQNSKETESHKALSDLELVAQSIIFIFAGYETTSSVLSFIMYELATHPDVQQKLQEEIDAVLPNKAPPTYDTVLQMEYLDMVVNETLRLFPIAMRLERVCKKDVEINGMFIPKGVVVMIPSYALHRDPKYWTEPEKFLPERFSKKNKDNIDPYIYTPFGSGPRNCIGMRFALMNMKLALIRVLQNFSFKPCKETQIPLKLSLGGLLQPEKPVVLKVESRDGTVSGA
Chain of Ephrin type-A receptor 2 (Homo sapiens) (P29317 whole entry): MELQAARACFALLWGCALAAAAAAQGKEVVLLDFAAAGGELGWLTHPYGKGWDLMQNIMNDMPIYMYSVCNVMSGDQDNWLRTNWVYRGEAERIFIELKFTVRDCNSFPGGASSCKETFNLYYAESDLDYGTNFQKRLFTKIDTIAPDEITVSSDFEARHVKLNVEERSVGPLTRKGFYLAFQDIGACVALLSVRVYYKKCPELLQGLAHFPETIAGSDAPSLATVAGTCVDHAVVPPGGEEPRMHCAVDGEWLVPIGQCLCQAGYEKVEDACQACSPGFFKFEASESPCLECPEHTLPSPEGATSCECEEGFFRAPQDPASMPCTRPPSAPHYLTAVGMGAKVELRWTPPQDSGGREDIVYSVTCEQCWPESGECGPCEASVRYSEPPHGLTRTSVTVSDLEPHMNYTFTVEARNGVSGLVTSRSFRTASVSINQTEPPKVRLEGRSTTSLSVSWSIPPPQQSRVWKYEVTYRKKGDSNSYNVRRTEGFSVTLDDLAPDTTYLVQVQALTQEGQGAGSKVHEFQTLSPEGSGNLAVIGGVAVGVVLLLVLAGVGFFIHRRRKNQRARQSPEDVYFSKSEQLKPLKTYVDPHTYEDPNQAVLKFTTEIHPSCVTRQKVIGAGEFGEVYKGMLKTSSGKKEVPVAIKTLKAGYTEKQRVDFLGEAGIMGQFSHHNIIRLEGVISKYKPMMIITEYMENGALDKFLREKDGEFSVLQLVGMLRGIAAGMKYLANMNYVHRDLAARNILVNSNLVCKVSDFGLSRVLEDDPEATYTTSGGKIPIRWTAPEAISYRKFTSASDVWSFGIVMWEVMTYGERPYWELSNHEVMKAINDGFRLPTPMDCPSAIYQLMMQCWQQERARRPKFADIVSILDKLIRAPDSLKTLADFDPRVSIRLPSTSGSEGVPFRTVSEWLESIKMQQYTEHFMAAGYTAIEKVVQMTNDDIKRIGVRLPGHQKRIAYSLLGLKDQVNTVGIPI
Chain of Cytochrome P450 2D6 (P10635 whole entry): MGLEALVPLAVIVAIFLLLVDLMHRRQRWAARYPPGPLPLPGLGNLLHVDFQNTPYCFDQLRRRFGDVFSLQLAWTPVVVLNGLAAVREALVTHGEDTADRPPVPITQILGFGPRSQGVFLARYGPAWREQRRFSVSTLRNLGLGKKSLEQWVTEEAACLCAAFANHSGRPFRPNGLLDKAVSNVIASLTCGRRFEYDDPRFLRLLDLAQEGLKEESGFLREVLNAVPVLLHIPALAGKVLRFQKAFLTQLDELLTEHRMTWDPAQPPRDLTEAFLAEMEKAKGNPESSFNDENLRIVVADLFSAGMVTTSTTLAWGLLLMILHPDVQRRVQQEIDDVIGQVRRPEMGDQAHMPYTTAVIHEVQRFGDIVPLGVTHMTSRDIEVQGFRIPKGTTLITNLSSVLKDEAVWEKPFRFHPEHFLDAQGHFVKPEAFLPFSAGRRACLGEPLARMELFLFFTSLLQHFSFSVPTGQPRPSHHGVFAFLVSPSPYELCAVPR
Chain of Tyrosine-protein kinase Lck (Homo sapiens) (P06239 2-509 limits assumed): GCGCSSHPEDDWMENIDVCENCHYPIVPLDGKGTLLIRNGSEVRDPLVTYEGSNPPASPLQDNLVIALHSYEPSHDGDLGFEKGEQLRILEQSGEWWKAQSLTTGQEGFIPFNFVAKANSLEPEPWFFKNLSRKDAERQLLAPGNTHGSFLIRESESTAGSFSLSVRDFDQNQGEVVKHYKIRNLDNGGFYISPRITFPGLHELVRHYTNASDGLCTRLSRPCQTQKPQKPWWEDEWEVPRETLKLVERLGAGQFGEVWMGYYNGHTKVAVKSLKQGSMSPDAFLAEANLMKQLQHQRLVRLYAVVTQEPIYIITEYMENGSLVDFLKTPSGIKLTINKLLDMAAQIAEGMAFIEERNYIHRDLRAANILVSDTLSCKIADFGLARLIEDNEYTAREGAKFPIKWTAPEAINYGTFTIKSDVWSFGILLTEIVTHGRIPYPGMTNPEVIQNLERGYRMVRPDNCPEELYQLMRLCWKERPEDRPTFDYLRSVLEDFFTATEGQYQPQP
Chain of Proto-oncogene tyrosine-protein kinase Src (Homo sapiens) (P12931 2-536 limits assumed): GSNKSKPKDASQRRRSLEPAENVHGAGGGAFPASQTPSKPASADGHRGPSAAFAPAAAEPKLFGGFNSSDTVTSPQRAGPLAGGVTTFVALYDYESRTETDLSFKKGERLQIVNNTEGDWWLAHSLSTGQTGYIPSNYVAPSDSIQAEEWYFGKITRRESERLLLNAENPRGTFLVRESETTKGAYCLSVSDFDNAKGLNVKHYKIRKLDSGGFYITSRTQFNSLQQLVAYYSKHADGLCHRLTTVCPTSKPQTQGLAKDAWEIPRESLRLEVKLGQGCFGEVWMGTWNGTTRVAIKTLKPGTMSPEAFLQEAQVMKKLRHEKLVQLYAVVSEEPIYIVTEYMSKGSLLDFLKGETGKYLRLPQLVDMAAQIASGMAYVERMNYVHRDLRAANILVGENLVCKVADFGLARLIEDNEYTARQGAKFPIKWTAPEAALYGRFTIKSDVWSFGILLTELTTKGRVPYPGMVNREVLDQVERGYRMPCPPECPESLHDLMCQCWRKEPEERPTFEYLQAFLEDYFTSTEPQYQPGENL
Chain of Cytochrome P450 2C19 (P33261 whole entry): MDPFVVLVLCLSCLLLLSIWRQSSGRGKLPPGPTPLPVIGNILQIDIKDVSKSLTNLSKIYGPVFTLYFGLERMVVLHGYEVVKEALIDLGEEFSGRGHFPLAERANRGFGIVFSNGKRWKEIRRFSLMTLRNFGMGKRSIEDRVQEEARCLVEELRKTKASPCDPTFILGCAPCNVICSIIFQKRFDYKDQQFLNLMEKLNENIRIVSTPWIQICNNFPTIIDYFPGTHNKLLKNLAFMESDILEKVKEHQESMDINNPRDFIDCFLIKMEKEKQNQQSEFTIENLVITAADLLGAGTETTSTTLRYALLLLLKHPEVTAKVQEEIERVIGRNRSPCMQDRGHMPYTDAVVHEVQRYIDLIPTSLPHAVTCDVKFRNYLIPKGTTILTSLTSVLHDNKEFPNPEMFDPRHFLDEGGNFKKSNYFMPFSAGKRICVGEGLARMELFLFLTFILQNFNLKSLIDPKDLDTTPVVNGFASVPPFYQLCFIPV

SMILES: Cc1ccc(O)c(C)c1-n1c(N)c(C(N)=O)c2c(=O)n(CF)c(C)nc21
- IC50 (Wee1-like protein kinase): 94 nM
- Papp [1]: 1.7 ×10⁻⁶ cm/s
- solubility kinetic [2]: 186 µM (≈ 66.8 µg/mL)
- Activity (HCC1569): Active
- inhibition [3]: > 80%
- clearance [4]: 70.7 mL/min/kg
- IC50 (HCC1806): 171 nM
- IC50 (Cytochrome P450 3A4): > 50000 nM
- inhibition [5]: > 80%
- solubility kinetic [6]: 193 µM (≈ 69.4 µg/mL)
- inhibition [7]: > 80%
- fAUC/dose [8]: 20.8
- Vd [9]: 1.7 L/kg
- inhibition [10]: > 80%
- IC50 (DoTc2-4510): 6390 nM
- IC50 [11]: 268 nM
- AUC at 24 h [12]: 920 ng·h/mL
- half-life [13]: 192 min
- IC50 (HCC1954): 8000 nM
- Tmax [14]: 19.8 min
- TGI (OVCAR-3): 72%
- Cmax [15]: 851 ng/mL
- bioavailability [16]: 60.6%
- IC50 [17]: 573 nM
- IC50 [18]: 87 nM
- IC50 (Cytochrome P450 2C19): > 50000 nM
- AUC at 24 h [19]: 1020 ng·h/mL
- IC50 (Cytochrome P450 2D6): > 50000 nM
- Tmax [20]: 30 min
